We go through 8 compounds from US6521643B1, “Pyridine compounds and their pharmaceutical use” (Fujisawa Pharmaceutical Co., Ltd., priority 1999, dated 2003).

Structures can show the parent of a compound that is named as a salt.

In data set [1] the target is T1, Nitric Oxide Synthase (NOS) (Rattus norvegicus, UniProt P29476).
T1 construct: each drug was incubated with the brain cytosol (200 μg protein/tube); from tissue; host or cells: whole brain (including cerebellum) of male SD rats, cytosolic supernatant (48,000 x g), passed through Dowex AG50WX-8
In words: Binding assay using nitric oxide synthase (NOS), crude preparation from rat brain cytosol, [3H]Na radioligand. Particulars: test compound 10^−4M, brain cytosol of male SD rats, 10 nM [^3H]Na, 27° C., 90 minutes; for inhibition: read-out: Inhibition (%) of specific binding. The method, then:
Test: Binding Assay Using Nitric Oxide Synthase (NOS)
A crude preparation of NOS was obtained from brains of male SD rats. The whole brain (including cerebellum) was homogenized with 5 volume (W/V) of 50 mM Tris buffer (pH 7.0 at 4° C.) and centrifuged at 48,000×g for 20 minutes. The pellet was discarded and the supernatant was passed through ¼ volume (V/V) of Dowex AG50WX-8 resin (Na^+ form), in order to remove endogenous arginine. The supernatant was collected, the pH was adjusted to 7.0 at 22° C., and this cytosolic preparation was frozen and stored at −80° C. until required. In the binding assay, each drug was incubated with the brain cytosol (200 μg protein/tube) in 0.15 ml (final volume) of 50 mM Tris buffer containing 10 μM CaCl2 and 10 nM [^3H]Na (Amersham, UK). Incubation was performed at 27° C. for 90 minutes and terminated by vacuum filtration through 0.3% polyethyleneimine pretreated GF/B glass fibre filters which were subsequently washed with distilled water (4° C., 4 ml×4). Nonspecific binding was defined by use of […] Na. Data are expressed as inhibition % of specific binding.

A word on the inhibition: it is the drop in the measured response relative to a control, in per cent. As usually defined, the melting point is the temperature, or range, at which the solid turns liquid.

Regarding `COc1ccnc(-c2sc(NC(=N)N)nc2C)c1` [(a), 2-Guanidino-4-methyl-5-(4-methoxypyridin-2-yl)thiazole], the inhibition in data set [1] amounted to 99%.
With `COc1ccnc(-c2ccc(C)c(NC(=N)N)c2)c1.Cl.Cl` [(b), (5-(4-Methoxypyridin-2-yl)-2-methylphenyl)guanidine dihydrochloride], the “Inhibition (%) of specific binding” value in data set [1] is listed as 98.9%.
Take `CCSC(=N)Nc1cccc(-c2cc(OC)ccn2)c1` [(c), N-(3-(4-Methoxypyridin-2-yl)phenyl)-S-ethylisothiourea dihydrochloride]: in data set [1], the inhibition was found to be 100%.
Same read-out and setting: the figure for `COc1ccnc(-c2ccc3ccc(N)nc3c2)c1` [(d), 2-Amino-7-(4-methoxypyridin-2-yl)quinoline dihydrochloride] is 99.3%; for `Cc1ccnc(-c2ccc3ccc(N)nc3c2)c1` [(e), 2-Amino-7-(4-methylpyridin-2-yl)quinoline dihydrochloride] it is 98%; for `CNc1ccc2ccc(-c3cc(OC)ccn3)cc2n1` [(f), 7-(4-Methoxypyridin-2-yl)-2-methylaminoquinoline dihydrochloride] it is 99.4%.
Consider `Cc1ccnc(C(O)c2sc(NC(=N)N)nc2C)c1` (centres unmarked) [Example 24, N-(5-(hydroxy-(4-methylpyridin-2-yl)methyl)-4-methylthiazol-2-yl)guanidine], for which the melting point was in the range of 150.5 to 151.5 °C.
In the case of `CC(=O)NC(c1cc(C)ccn1)c1sc(NC(=N)N)nc1C` (centres unmarked) [Example 26, N-(5-(acetylamino-(4-methylpyridin-2-yl)methyl)-4-methylthiazol-2-yl)-guanidine], the melting point was in the range of 239 to 240 °C.
